Assay results published in PubChem BioAssay AID2060899 (Molecular Pharmacology Branch, DTP, NCI, 2025).
pIC50: −log10 of the molar value.

System: 565726-208-R1-J5-PDC complex spheroids, growth inhibition
Assay: Anticancer human tumor 565726-208-R1-J5-PDC patient-derived pancreatic adenocarcinoma cell line growth inhibition [RAS]
Settings: for pIC50: curve of first compound; for viability, T/C: stronger effect = lower value
Summary of the method: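 Multi-cell-type spheroids: tumor cells plus HUVEC endothelial cells and mesenchymal stem cells. RAS-pathway inhibitors were combined with targeted agents, each dosed in half-log steps down from clinical Cmax, or from 10 microM when Cmax was unknown.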

[1] = second compound 0.000949 µM, first compound 0.0316 µM
[2] = second compound 0.000949 µM, first compound 0.1 µM
[3] = second compound 0.000949 µM, first compound 0.316 µM
[4] = second compound 0.000949 µM, first compound 1 µM
[5] = second compound 0.003 µM, first compound 0.0316 µM
[6] = second compound 0.003 µM, first compound 0.1 µM
[7] = second compound 0.003 µM, first compound 0.316 µM
[8] = second compound 0.003 µM, first compound 1 µM
[9] = second compound 0.00949 µM, first compound 0.0316 µM
[10] = second compound 0.00949 µM, first compound 0.1 µM
[11] = second compound 0.00949 µM, first compound 0.316 µM
[12] = second compound 0.00949 µM, first compound 1 µM
[13] = second compound 0.03 µM, first compound 0.0316 µM
[14] = second compound 0.03 µM, first compound 0.1 µM
[15] = second compound 0.03 µM, first compound 0.316 µM
[16] = second compound 0.03 µM, first compound 1 µM
[17] = second compound 0.0949 µM, first compound 0.0316 µM
[18] = second compound 0.0949 µM, first compound 0.1 µM
[19] = second compound 0.0949 µM, first compound 0.316 µM
[20] = second compound 0.0949 µM, first compound 1 µM
[21] = second compound 0.3 µM, first compound 0.0316 µM
[22] = second compound 0.3 µM, first compound 0.1 µM
[23] = second compound 0.3 µM, first compound 0.316 µM
[24] = second compound 0.3 µM, first compound 1 µM
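Further: spheroids exposed to compounds for seven days before readout.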
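Wherever viability, T/C is given: 100% = DMSO vehicle control viability.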

**Q.** `CC1(O)CCCC1n1c(=O)c(C(F)F)cc2cnc(NC3CCN(S(C)(=O)=O)CC3)nc21` (centres undefined) + CCn1c(-c2cccnc2C(C)OC)c2c3cc(ccc31)N1CCOC(CC(NC(=O)C(C(C)C)N(C)C(=O)C3(F)CCN(C(=O)C#CC(C)(C)N(C)C)CC3)C(=O)N3CCCC(N3)C(=O)OCC(C)(C)C2)C1 was tested. Which pIC50 (second compound 0.000949 µM) did it give?
**A.** The pIC50 was 5.80.

**Q.** What about the pIC50 (second compound 0.003 µM) of the same compound?
**A.** Its pIC50 is 5.76.

**Q.** What about the pIC50 (second compound 0.00949 µM) of the same compound?
**A.** The pIC50 was 5.61.

**Q.** And the pIC50 (second compound 0.03 µM)?
**A.** Its pIC50 is 5.67.

**Q.** What about the pIC50 (second compound 0.0949 µM) of the same compound?
**A.** Its pIC50 is 6.13.

**Q.** And the pIC50 (second compound 0.3 µM)?
**A.** Its pIC50 is 5.78.

**Q.** What about the viability, T/C [1] of the same compound?
**A.** Its viability, T/C is 89.3%.

**Q.** And the viability, T/C [2]?
**A.** Its viability, T/C is 65.9%.

**Q.** What about the viability, T/C [3] of the same compound?
**A.** The viability, T/C was 61.5%.

**Q.** What about the viability, T/C [4] of the same compound?
**A.** The viability, T/C was 55.9%.

**Q.** What about the viability, T/C (second compound 0.000949 µM, first compound 3.16 µM) of the same compound?
**A.** The viability, T/C was 48%.

**Q.** And the viability, T/C (second compound 0.000949 µM, first compound 10 µM)?
**A.** The viability, T/C was 4.71%.

**Q.** What about the viability, T/C [5] of the same compound?
**A.** The viability, T/C was 92.6%.

**Q.** What about the viability, T/C [6] of the same compound?
**A.** The viability, T/C was 66.7%.

**Q.** What about the viability, T/C [7] of the same compound?
**A.** Its viability, T/C is 59.9%.

**Q.** And the viability, T/C [8]?
**A.** Its viability, T/C is 61.9%.

**Q.** What about the viability, T/C (second compound 0.003 µM, first compound 3.16 µM) of the same compound?
**A.** The viability, T/C was 47.5%.

**Q.** And the viability, T/C (second compound 0.003 µM, first compound 10 µM)?
**A.** The viability, T/C was 5.57%.

**Q.** And the viability, T/C [9]?
**A.** Its viability, T/C is 87.1%.

**Q.** What about the viability, T/C [10] of the same compound?
**A.** The viability, T/C was 73.3%.

**Q.** What about the viability, T/C [11] of the same compound?
**A.** Its viability, T/C is 64%.

**Q.** What about the viability, T/C [12] of the same compound?
**A.** The viability, T/C was 65.4%.

**Q.** And the viability, T/C (second compound 0.00949 µM, first compound 3.16 µM)?
**A.** Its viability, T/C is 50.4%.

**Q.** What about the viability, T/C (second compound 0.00949 µM, first compound 10 µM) of the same compound?
**A.** The viability, T/C was 4.99%.

**Q.** And the viability, T/C [13]?
**A.** Its viability, T/C is 79.3%.

**Q.** What about the viability, T/C [14] of the same compound?
**A.** Its viability, T/C is 70.6%.

**Q.** And the viability, T/C [15]?
**A.** The viability, T/C was 64.6%.

**Q.** What about the viability, T/C [16] of the same compound?
**A.** Its viability, T/C is 55%.

**Q.** What about the viability, T/C (second compound 0.03 µM, first compound 3.16 µM) of the same compound?
**A.** The viability, T/C was 51.5%.

**Q.** And the viability, T/C (second compound 0.03 µM, first compound 10 µM)?
**A.** Its viability, T/C is 5.14%.

**Q.** And the viability, T/C [17]?
**A.** The viability, T/C was 86.3%.

**Q.** What about the viability, T/C [18] of the same compound?
**A.** The viability, T/C was 72.7%.

**Q.** What about the viability, T/C [19] of the same compound?
**A.** Its viability, T/C is 53.8%.

**Q.** And the viability, T/C [20]?
**A.** Its viability, T/C is 53%.

**Q.** What about the viability, T/C (second compound 0.0949 µM, first compound 3.16 µM) of the same compound?
**A.** The viability, T/C was 49.9%.

**Q.** What about the viability, T/C (second compound 0.0949 µM, first compound 10 µM) of the same compound?
**A.** Its viability, T/C is 3.75%.

**Q.** What about the viability, T/C [21] of the same compound?
**A.** The viability, T/C was 68%.

**Q.** What about the viability, T/C [22] of the same compound?
**A.** The viability, T/C was 64.2%.

**Q.** What about the viability, T/C [23] of the same compound?
**A.** The viability, T/C was 54.3%.

**Q.** And the viability, T/C [24]?
**A.** Its viability, T/C is 54.1%.

**Q.** What about the viability, T/C (second compound 0.3 µM, first compound 3.16 µM) of the same compound?
**A.** Its viability, T/C is 45.4%.

**Q.** And the viability, T/C (second compound 0.3 µM, first compound 10 µM)?
**A.** The viability, T/C was 3.4%.

**Q.** With `CCN1CCN(Cc2ccc(Nc3ncc(F)c(-c4cc(F)c5nc(C)n(C(C)C)c5c4)n3)nc2)CC1` + CCn1c(-c2cccnc2C(C)OC)c2c3cc(ccc31)N1CCOC(CC(NC(=O)C(C(C)C)N(C)C(=O)C3(F)CCN(C(=O)C#CC(C)(C)N(C)C)CC3)C(=O)N3CCCC(N3)C(=O)OCC(C)(C)C2)C1 as the compound, how does the pIC50 (second compound 0.000949 µM) read?
**A.** The pIC50 was less than 6.00.

**Q.** What about the pIC50 (second compound 0.003 µM) of the same compound?
**A.** The pIC50 was less than 6.00.

**Q.** What about the pIC50 (second compound 0.00949 µM) of the same compound?
**A.** The pIC50 was less than 6.00.

**Q.** And the pIC50 (second compound 0.03 µM)?
**A.** Its pIC50 is less than 6.00.

**Q.** And the pIC50 (second compound 0.0949 µM)?
**A.** The pIC50 was less than 6.00.

**Q.** And the pIC50 (second compound 0.3 µM)?
**A.** The pIC50 was less than 6.00.

**Q.** And the viability, T/C (second compound 0.000949 µM, first compound 0.00316 µM)?
**A.** The viability, T/C was 93.5%.

**Q.** And the viability, T/C (second compound 0.000949 µM, first compound 0.01 µM)?
**A.** Its viability, T/C is 91.2%.

**Q.** And the viability, T/C [1]?
**A.** The viability, T/C was 80.6%.

**Q.** What about the viability, T/C [2] of the same compound?
**A.** The viability, T/C was 74%.

**Q.** And the viability, T/C [3]?
**A.** The viability, T/C was 59.3%.

**Q.** And the viability, T/C [4]?
**A.** The viability, T/C was 56.2%.

**Q.** And the viability, T/C (second compound 0.003 µM, first compound 0.00316 µM)?
**A.** Its viability, T/C is 105%.

**Q.** What about the viability, T/C (second compound 0.003 µM, first compound 0.01 µM) of the same compound?
**A.** Its viability, T/C is 96%.

**Q.** What about the viability, T/C [5] of the same compound?
**A.** The viability, T/C was 84.3%.

**Q.** What about the viability, T/C [6] of the same compound?
**A.** Its viability, T/C is 74.7%.

**Q.** And the viability, T/C [7]?
**A.** Its viability, T/C is 60.4%.

**Q.** What about the viability, T/C [8] of the same compound?
**A.** Its viability, T/C is 61%.

**Q.** What about the viability, T/C (second compound 0.00949 µM, first compound 0.00316 µM) of the same compound?
**A.** Its viability, T/C is 97.7%.

**Q.** And the viability, T/C (second compound 0.00949 µM, first compound 0.01 µM)?
**A.** Its viability, T/C is 89.8%.

**Q.** What about the viability, T/C [9] of the same compound?
**A.** The viability, T/C was 84.4%.

**Q.** What about the viability, T/C [10] of the same compound?
**A.** Its viability, T/C is 69.4%.

**Q.** What about the viability, T/C [11] of the same compound?
**A.** Its viability, T/C is 64.3%.

**Q.** And the viability, T/C [12]?
**A.** The viability, T/C was 56%.

**Q.** What about the viability, T/C (second compound 0.03 µM, first compound 0.00316 µM) of the same compound?
**A.** Its viability, T/C is 91.5%.

**Q.** What about the viability, T/C (second compound 0.03 µM, first compound 0.01 µM) of the same compound?
**A.** The viability, T/C was 94.3%.

**Q.** And the viability, T/C [13]?
**A.** Its viability, T/C is 85.1%.

**Q.** And the viability, T/C [14]?
**A.** The viability, T/C was 72.7%.

**Q.** And the viability, T/C [15]?
**A.** The viability, T/C was 62%.

**Q.** And the viability, T/C [16]?
**A.** Its viability, T/C is 57.4%.

**Q.** And the viability, T/C (second compound 0.0949 µM, first compound 0.00316 µM)?
**A.** The viability, T/C was 95%.

**Q.** And the viability, T/C (second compound 0.0949 µM, first compound 0.01 µM)?
**A.** The viability, T/C was 94.7%.

**Q.** What about the viability, T/C [17] of the same compound?
**A.** The viability, T/C was 85.7%.

**Q.** What about the viability, T/C [18] of the same compound?
**A.** Its viability, T/C is 67.9%.

**Q.** And the viability, T/C [19]?
**A.** The viability, T/C was 54.1%.

**Q.** And the viability, T/C [20]?
**A.** The viability, T/C was 59.5%.

**Q.** And the viability, T/C (second compound 0.3 µM, first compound 0.00316 µM)?
**A.** Its viability, T/C is 85%.

**Q.** And the viability, T/C (second compound 0.3 µM, first compound 0.01 µM)?
**A.** The viability, T/C was 82.1%.

**Q.** And the viability, T/C [21]?
**A.** The viability, T/C was 76.5%.

**Q.** What about the viability, T/C [22] of the same compound?
**A.** Its viability, T/C is 64.1%.

**Q.** And the viability, T/C [23]?
**A.** Its viability, T/C is 56.2%.

**Q.** What about the viability, T/C [24] of the same compound?
**A.** The viability, T/C was 55.3%.
